Entries after “also recorded” stand apart in the source; their conditions may differ. One block for each molecule: values may come before it.
Tests used:
Format in all cases: cell-based, human
[1] = tested on: UBE3A-deficient iOPCs; test: Ki67 (and PCNA) immunoblotting in UBE3A-knockdown iOPCs: compound screen and rescue of proliferation; settings: for impact of UBE3A loss on OPC proliferation (FIG. 18F, 19G): ERβ activators of different structural classes; for restoration of Ki67 expression in compound screen: Ki67 immunoblotting normalized to siNC=1.0; for effect of AC-186 to enhance proliferation of iOPCs with UBE3A knockdown (Ki67): MEK inhibitor with AC-186 co-treatment (10 μM, 24 hours)
Experimental: Given the scarcity of knowledge regarding UBE3A function in oligodendrocyte biology, a comprehensive exploration of various cellular functions was performed, leveraging the high-throughput capabilities of the iPSC-based methodology (e.g., as described herein). We selected over 45 compounds with known targeted cellular actions (Table 1). These were chosen based on their documented effects on UBE3A, their ability to promote oligodendrocyte development and myelination, or their protective 10 roles in neural tissue. UBE3A expression was modulated using siRNA, achieving a controlled reduction that decreased OPC proliferation by approximately 50%, as evidenced by Ki67 protein levels.
iPSC Culturing and Generation of Induced Human Brain Cells Including Oligodendroglia, Neurons (IN), Astrocytes (iAs) and Microglia (iMG) The generation of iPSC-derived human oligodendrocyte precursor cells (iOPCs) was carried out according to a previously published protocol by Vulakh and Yang et al., 2023 (Characterizing the Neuron-Glial Interactions by the Co-cultures of Human iPSC-Derived Oligodendroglia and Neurons. Methods Mol. Biol. 2683), which itself was a modification of an earlier protocol by Assetta et al., 2020 (Generation of Human Neurons and Oligodendrocytes from Pluripotent Stem Cells for Modeling Neuron-Oligodendrocyte Interactions. J Vis Exp.). The process began with the control iPSCs, which is a well-characterized control reference line acquired from the NIH-funded iPSC Neurodegenerative Disease Initiative (INDI, (Ramos, D. M., Skarnes, W. C., Singleton, A. B., Cookson, M. R., and Ward, M. E. (2021). Tackling neurodegenerative diseases with genomic engineering: A new stem cell initiative from the NIH. Neuron 109, 1080-1083. 10.1016/j.neuron.2021.03.022)), distributed by the Jackson Laboratory. These iPSCs were maintained in mTeSR plus medium (StemCell Technologies, #05825) and expanded in Stem Flex medium (Fisher Scientific. #A3349401) for the induction of neural progenitor cells (INPC). The iNPCs were derived by treating iPSCs with a commercial SMAD inhibitor medium (StemCell Technologies, #08582) for 7 days (Week 1). Subsequently, NPCs were further induced to become OPCs by a 7-day incubation (Week 2) with a chemically-defined OPC medium: DMEM/F12 medium (Thermo Fisher, #11320033) supplemented by 10 ng/ml PDGF-AA (R&D Systems, #221-AA-025), 1 μM SAG (Tocris, #4366), […] N-Acetyl-Cysteine (Millipore Sigma, #A9165-5G), 20 ng/mL bFGF (R&D Systems, #233-FB-025/CF), 1% N2 supplement (Thermo Fisher, #17502048), and 1% B27 supplement (Thermo Fisher, #17504044). […] The additional incubation with OL medium for 7-14 days (Week 4-5) yielded mature, myelinating OLs.
(§1) The siRNAs targeting UBE3A (Thermo Fisher, #4390815 and #4390816), estrogen receptors (Thermo Scientific #145909 for ESRβ, #145539 for ESRα, and #4390824 for GPER), and negative control (Thermo Scientific, #AM4615) were obtained commercially. The 10-20 nM final concentration was used with Lipofectamine RNAiMAX transfection reagent (Thermo Scientific #13778075) and incubated for at least 48 hours before the treatments of therapeutic compounds or other reagents.
Cells were collected by fast spin down in centrifuge tubes before lysis in RIPA buffer (ThermoFisher, #89901) supplemented with proteinase inhibitor cocktail (Sigma-Aldrich, #5892791001) on ice. Lysates were then spun down at 15000 rpm for 10 mins, the supernatant was collected and mixed with 4× Laemmle sample buffer (Bio-Rad, #1610747) and cooked 10 mins before SDS-PAGE and transferred with Bio-Rad fast transfer system, the membranes were blocked for one hour in 1× Tris Buffered Saline (TBS) with 1% Casein buffer (Bio-Rad, #1610782) and incubated with primary antibodies overnight at 4 degrees. […]

[2] = tested on: iOPCs expressing Cas9 and a sgRNA targeting UBE3A; test: EdU incorporation in iOPCs with CRISPR/Cas9 UBE3A depletion (Lenti-sgUBE3A #1-3); settings: 10 μM; any of the sgRNAs
Experimental: The sgRNAs targeting UBE3A, and negative control were obtained from Applied Biological Materials Inc. Targeting sgRNA sequences against UBE3A are: sgRNA1, […]; sgRNA2, […]; sgRNA3, […]. These sgRNAs were integrated into the backbone of the negative control pLenti-U6-sgRNA-SFFV-Cas9-2A-Puro. All constructs were packaged into lentiviruses and concentrated by Lenti-X Concentrator (Takara Bio #631231). In each experiment, 5-10 μl of concentrated virus was administered into ˜70% confluent iOPCs cultures in 6-well plates. One day post-lentiviral transduction, iOPC cultures were treated with approximately 5 μg/ml Puromycin to isolate those iOPCs which are expressing Cas9/sgRNAs. Following a day of selection, the iOPCs were then seeded on gelatin-coated coverslips placed in 24-well plates at a density of 100,000 cells per well. After another day allowed for cell stabilization, treatment with either the vehicle control (DMSO), AC-186, DPN, or LY500307 commenced at a standard concentration of 10 μM. A final 24-hour period after this treatment saw the cells exposed to […] for three hours, preparing them for subsequent immunofluorescence staining.
The EdU labeling kit from ThermoFisher Scientific (#C10637) was used to trace cell proliferation by incubating iOPCs with 2 μM EdU for three hours before fixation. Following EdU incorporation, cells were fixed in 4% paraformaldehyde, blocked with normal serum, and stained with primary antibodies, Rabbit anti-Ki67 and Mouse anti-UBE3A. These steps were conducted according to the manual of the labeling kit and also detailed immunofluorescence staining protocols described below, to ensure specific detection of the proliferation marker Ki67 and the ubiquitin-protein ligase UBE3A in the cells for subsequent imaging analysis.

[3] = tested on: UBE3A-deficient iOPCs and iOLs; test: Oligodendrocyte differentiation of UBE3A-deficient iOPCs into iOLs (immunoblotting of Ki67, MAG, CNPase); settings: UBE3A-deficient iOLs; AC-186 (10 µM), clemastine (2.5 μM); 3 days
Experimental: FIG. 25C: Immunoblotting was conducted to assess the impact of UBE3A depletion on ESR-β expression during oligodendrocyte differentiation. Protein levels of ESR-β in UBE3A-deficient iOPCs and subsequently differentiated iOLs were quantified, normalized against the loading control GAPDH, and expressed relative to the iOPC+siNC control condition (set at 1.0). […] Levels of Ki67 and Myelin Associated Glycoprotein (MAG) were measured in UBE3A-deficient iOPCs and iOLs differentiated from them, normalized against GAPDH, and compared to the iOPC+siNC condition. n=4 experiments. FIG. 25E: Immunoblotting to examine the role of UBE3A for OPC self-renewal and oligodendrocyte differentiation across different developmental stages. Expression of maturation and myelination markers (MBP, MAG, PLP1, CNPase) was quantified following UBE3A depletion timed from iOPCs to pre-iOLs, normalized against TUBB1. and compared to the iOPC+siNC control condition (set at 1.0). n=4 experiments.

[4] = tested on: AS iOPCs differentiated into iOLs; test: Differentiation of AS patient-derived iOPCs into iOLs (MAG, CNPase, MBP); settings: AC-186 10 μM or clemastine 2.5 μM, 72 hours
[5] = tested on: ERK/MAPK signaling pathway; test: ERK/MAPK and S6 activation in iOPCs by immunoblotting (phosphorylated to total ratio); settings: MEK inhibitor added to UBE3A-depleted OPCs with AC-186
Description: FIGS. 20A-20E depict the identification of ESR-β signaling pathway in regulating OPC proliferation impaired by UBE3A depletion. FIG. 20A: Immunofluorescence to track estrogen receptor (ESR) expression in OPCs, by staining of all 3 ESRs, ESR-α, ESR-β and GPER (top panels), in iOPCs co-labeled with UBE3A (middle panels) and DAPI; scale bar, 100 μm. […] FIG. 20B: Immunoblotting to assess OPC expression of individual ESRs, by analyzing protein levels of ESR-α, ESR-β and GPER in iOPCs treated with siNC or siUBE3A, normalized to GAPDH and expressed relative to the siNC condition (set as 1.0). After treatment with siUBE3A, expression of ESR-β was decreased, while expression of GPER was increased. n=5-6 experiments. FIG. 20C: The activation of the ERK/MAPK signaling pathway in OPCs, particularly downstream of ESR-β, was analyzed in iOPCs subjected to 6 knockdown conditions: siNC, siUBE3A, siESRα, siESRβ, and combinations of siUBE3A with siESRα or siESRβ. These were followed by treatment with vehicle control or the ESR-β agonist AC-186 (10 μM, 30 min). The activation of ERK and its substrate S6 was determined by the ratio of phosphorylated to total ERK and S6 levels, adjusted relative to the vehicle control group (standard value of 1.0). ERK phosphorylation and S6 phosphorylation was decreased in cells treated with siESRβ, or siESRβ and siUBE3A combined. n=3 experiments. FIG. 20D: Immunoblotting to evaluate the role of ERK/MAPK activation in the restoration of OPC proliferation following ESR-β activation, with the addition of ERK phosphorylation inhibitors U0126 or PD98059 to UBE3A-depleted OPCs, with or without AC-186 co-treatment (10 μM. 24 hours). The quantification of Ki67 expression and UBE3A levels, being normalized to β-tubulin (TUBB1) and compared to the siNC condition (value of 1.0). n=5 experiments. FIG. 20E: A schematic depicting the regulatory role of ESR-β signaling pathway in OPC proliferation, identified by combining genetic knockdown techniques and pharmacological interventions. Activation of ESR-β selectively triggers the ERK/MAPK pathway, as shown by ERK phosphorylation and the ERK substrate S6 activation, essential for cell proliferation. […] As applicable: statistical significance was determined using One-way ANOVA followed by post-hoc comparisons, with selected comparisons presented. Significance levels marked as *p<0.05. ** p<0.005. *** p<0.001. **** p<0.0001, ns not significant, across relevant comparisons.
as §1
Cells were collected by fast spin down in centrifuge tubes before lysis in RIPA buffer (ThermoFisher, #89901) supplemented with proteinase inhibitor cocktail (Sigma-Aldrich, #5892791001) on ice. Lysates were then spun down at 15000 rpm for 10 mins, the supernatant was collected and mixed with 4× Laemmle sample buffer (Bio-Rad, #1610747) and cooked 10 mins before SDS-PAGE and transferred with Bio-Rad fast transfer system, the membranes were blocked for one hour in 1× Tris Buffered Saline (TBS) with 1% Casein buffer (Bio-Rad, #1610782) and incubated with primary antibodies overnight at 4 degrees. After 3 times washing in TBST washing buffers (ThermoFisher, #28352), the membranes were incubated with HRP conjugated antibodies and developed with Clarity Max™ Western ECL Substrate (Bio-Rad, #1705062) before being filmed in the iBright imaging system.

[6] = siUBE3A cells, 10 μM, 24 hours, normalized to GAPDH

Molecule: Oc1ccc([C@@H]2Oc3ccc(O)cc3[C@@H]3CCC[C@@H]32)cc1 [LY500307, reference compound]
impact of UBE3A loss on OPC proliferation (FIG. 18F, 19G) [1]: similarly mitigated the impact of UBE3A loss on OPC proliferation
Ki67 expression (FIG. 19G) [1, 6]: increased expression
PCNA expression (FIG. 19G) [1, 6]: increased expression
number of EdU+ cells [2]: increased the number of EdU+ cells

Molecule: O=C1C[C@@H](c2ccc(O)cc2)Oc2cc(O)ccc21 [Liquiritigenin, reference compound]
impact of UBE3A loss on OPC proliferation (FIG. 18F, 19G) [1]: similarly mitigated the impact of UBE3A loss on OPC proliferation

oligodendrocyte differentiation (MAG), FIG. 25D [3]: enhanced differentiation
Molecule: CN1CCC[C@@H]1CCO[C@](C)(c1ccccc1)c1ccc(Cl)cc1 [clemastine, Clemastine, reference compound]
oligodendrocyte differentiation (MAG, CNPase, MBP) [4]: positively influenced the differentiation process

Molecule: FGF: fibroblast growth factor; bFGF, human recombinant
restoration of Ki67 expression in compound screen ([1]; 10 μM, 24 hours): restored; also recorded: effectively normalized proliferation levels; also recorded: Statistically significant; also recorded: capable of restoring Ki67 expression

Molecule: Oc1ccc(-c2nc3cc(O)cc(Br)c3o2)cc1 [WAY-200070, reference compound]
impact of UBE3A loss on OPC proliferation (FIG. 18F, 19G) [1]: similarly mitigated the impact of UBE3A loss on OPC proliferation

Molecule: COc1cccc(-c2cc(=O)c3ccccc3o2)c1N [PD98059, reference compound]
ERK/MAPK pathway activation stimulated by AC-186 [5]: inhibited
effect of AC-186 to enhance proliferation of iOPCs with UBE3A knockdown (Ki67) [1]: reduced

Molecule: N#CC(=C(/N)Sc1ccccc1N)/C(C#N)=C(\N)Sc1ccccc1N [U0126, reference compound]
ERK/MAPK pathway activation stimulated by AC-186 [5]: inhibited
effect of AC-186 to enhance proliferation of iOPCs with UBE3A knockdown (Ki67) [1]: reduced

B1: BDNF: brain-derived neurotrophic factor, human recombinant; neurotrophin that belongs to NGF-beta family (protein, UniProt P23560 19-247, looked up)
Neurotrophic factor BDNF …: APMKEANIRGQGGLAYPGVRTHGTLESVNGPKAGSRGLTSLADTFEHVIEELLDEDQKVRPNEENNKDADLYTSRVMLSSQVPLEPPLLFLLEEYKNYLDAANMSMRVRRHSDPARRGELSVCDSISEWVTAADKKTAVDMSGGTVTVLEKVPVSKGQLKQYFYETKCNPMGYTKEGCRGIDKRHWNSQCRTTQSYVRALTMDSKKRIGWRFIRIDTSCVCTLTIKRGR
restoration of Ki67 expression in compound screen ([1]; 10 μM, 24 hours): restored; also recorded: effectively normalized proliferation levels; also recorded: Statistically significant; also recorded: capable of restoring Ki67 expression
